# Data published in ChEMBL document CHEMBL3132769, “Fragment growing to retain or alter the selectivity of anchored kinase hinge-binding fragments” (Medchemcomm, 2014).
# Tests used:
# [1] = target: Mitogen-activated protein kinase 3 (Homo sapiens) (UniProt P27361); assay: Inhibition of human full length ERK1 expressed in Escherichia coli cell assessed as substrate phosphorylation using fluorescence-labelled peptides as substrate at 8 uM after 90 mins by microfluidic peptide phosphorylation assay
# [2] = target: T1, Interleukin-1 receptor-associated kinase 4 (Homo sapiens) (UniProt Q9NWZ3); assay: Inhibition of human IRAK4 catalytic domain expressed in baculovirus assessed as substrate phosphorylation using fluorescence-labelled peptides as substrate at 8 uM after 90 mins by microfluidic peptide phosphorylation assay
# T1 sequence (whole entry): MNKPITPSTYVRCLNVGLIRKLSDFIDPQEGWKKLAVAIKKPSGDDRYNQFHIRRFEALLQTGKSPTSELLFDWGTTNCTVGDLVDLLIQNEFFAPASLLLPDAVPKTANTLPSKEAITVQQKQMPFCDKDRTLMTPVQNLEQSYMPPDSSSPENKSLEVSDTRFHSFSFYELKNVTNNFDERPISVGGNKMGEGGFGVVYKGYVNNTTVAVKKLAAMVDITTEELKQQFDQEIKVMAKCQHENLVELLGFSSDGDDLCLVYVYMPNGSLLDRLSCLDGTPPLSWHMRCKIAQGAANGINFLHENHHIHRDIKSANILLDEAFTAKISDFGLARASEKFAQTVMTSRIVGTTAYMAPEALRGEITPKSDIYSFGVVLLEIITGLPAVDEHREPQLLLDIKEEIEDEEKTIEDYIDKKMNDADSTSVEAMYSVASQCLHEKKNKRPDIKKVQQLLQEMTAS
# [3] = target: Hepatocyte growth factor receptor (Homo sapiens) (UniProt P08581); assay: Inhibition of human MET cytoplasmic domain expressed in baculovirus assessed as substrate phosphorylation using fluorescence-labelled peptides as substrate at 8 uM after 90 mins by microfluidic peptide phosphorylation assay
# [4] = target: Serine/threonine-protein kinase pim-1 (Homo sapiens) (UniProt P11309); assay: Inhibition of human full length PIM1 expressed in baculovirus assessed as substrate phosphorylation using fluorescence-labelled peptides as substrate at 2 uM after 90 mins by microfluidic peptide phosphorylation assay
# [5] = target: Hepatocyte growth factor receptor (Homo sapiens) (UniProt P08581); assay: Inhibition of human MET cytoplasmic domain expressed in baculovirus assessed as substrate phosphorylation using fluorescence-labelled peptides as substrate at 2 uM after 90 mins by microfluidic peptide phosphorylation assay
# [6] = target: Casein kinase I isoform delta (Homo sapiens) (UniProt P48730); assay: Inhibition of human CK1D catalytic domain expressed in Escherichia coli cell assessed as substrate phosphorylation using fluorescence-labelled peptides as substrate at […] after 90 mins by microfluidic peptide phosphorylation assay
# [7] = target: Fibroblast growth factor receptor 1 (Homo sapiens) (UniProt P11362); assay: Inhibition of human FGFR1 catalytic domain expressed in baculovirus assessed as substrate phosphorylation using fluorescence-labelled peptides as substrate at 0.1 uM after 90 mins by microfluidic peptide phosphorylation assay
# [8] = target: T2, Aurora kinase A (Homo sapiens) (UniProt O14965); assay: Inhibition of human full length AurA expressed in baculovirus assessed as substrate phosphorylation using fluorescence-labelled peptides as substrate at 95 uM after 90 mins by microfluidic peptide phosphorylation assay
# T2 sequence (whole entry): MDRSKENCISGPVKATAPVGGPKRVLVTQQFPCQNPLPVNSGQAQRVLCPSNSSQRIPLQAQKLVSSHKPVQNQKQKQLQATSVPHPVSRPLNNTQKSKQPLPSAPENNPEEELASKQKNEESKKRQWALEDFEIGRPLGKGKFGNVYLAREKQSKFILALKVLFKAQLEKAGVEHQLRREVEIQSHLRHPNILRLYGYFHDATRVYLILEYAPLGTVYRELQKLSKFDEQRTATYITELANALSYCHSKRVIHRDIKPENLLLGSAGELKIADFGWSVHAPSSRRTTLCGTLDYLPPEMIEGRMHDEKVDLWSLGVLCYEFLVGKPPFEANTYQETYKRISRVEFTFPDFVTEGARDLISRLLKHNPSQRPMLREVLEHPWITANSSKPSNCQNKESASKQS
# [9] = target: Hepatocyte growth factor receptor (Homo sapiens) (UniProt P08581); assay: Inhibition of human MET cytoplasmic domain expressed in baculovirus assessed as substrate phosphorylation using fluorescence-labelled peptides as substrate at 1000 uM after 90 mins by microfluidic peptide phosphorylation assay
# [10] = target: T3, Serine/threonine-protein kinase Chk1 (Homo sapiens) (UniProt O14757); assay: Inhibition of human full length CHK1 expressed in baculovirus assessed as substrate phosphorylation using fluorescence-labelled peptides as substrate at 70 uM after 90 mins by microfluidic peptide phosphorylation assay
# T3 sequence (whole entry): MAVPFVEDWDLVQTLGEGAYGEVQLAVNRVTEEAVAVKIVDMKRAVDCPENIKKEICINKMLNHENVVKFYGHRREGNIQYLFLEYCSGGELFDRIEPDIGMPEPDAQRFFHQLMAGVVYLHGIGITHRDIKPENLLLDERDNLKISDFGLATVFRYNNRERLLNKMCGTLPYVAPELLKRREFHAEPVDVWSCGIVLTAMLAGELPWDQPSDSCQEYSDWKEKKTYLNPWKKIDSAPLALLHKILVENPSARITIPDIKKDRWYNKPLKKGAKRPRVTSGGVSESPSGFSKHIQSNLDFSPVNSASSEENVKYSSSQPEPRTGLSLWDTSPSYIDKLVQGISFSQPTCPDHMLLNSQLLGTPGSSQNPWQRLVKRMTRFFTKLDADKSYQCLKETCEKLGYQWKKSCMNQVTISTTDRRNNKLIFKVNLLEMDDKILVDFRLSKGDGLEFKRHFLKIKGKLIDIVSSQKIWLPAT
# [11] = target: T1, Interleukin-1 receptor-associated kinase 4 (Homo sapiens); assay: Inhibition of human IRAK4 catalytic domain expressed in baculovirus assessed as substrate phosphorylation using fluorescence-labelled peptides as substrate at 70 uM after 90 mins by microfluidic peptide phosphorylation assay
# [12] = target: T4, Serine/threonine-protein kinase Nek2 (Homo sapiens) (UniProt P51955); assay: Inhibition of human full length NEK2 expressed in baculovirus assessed as substrate phosphorylation using fluorescence-labelled peptides as substrate at 70 uM after 90 mins by microfluidic peptide phosphorylation assay
# T4 sequence (whole entry): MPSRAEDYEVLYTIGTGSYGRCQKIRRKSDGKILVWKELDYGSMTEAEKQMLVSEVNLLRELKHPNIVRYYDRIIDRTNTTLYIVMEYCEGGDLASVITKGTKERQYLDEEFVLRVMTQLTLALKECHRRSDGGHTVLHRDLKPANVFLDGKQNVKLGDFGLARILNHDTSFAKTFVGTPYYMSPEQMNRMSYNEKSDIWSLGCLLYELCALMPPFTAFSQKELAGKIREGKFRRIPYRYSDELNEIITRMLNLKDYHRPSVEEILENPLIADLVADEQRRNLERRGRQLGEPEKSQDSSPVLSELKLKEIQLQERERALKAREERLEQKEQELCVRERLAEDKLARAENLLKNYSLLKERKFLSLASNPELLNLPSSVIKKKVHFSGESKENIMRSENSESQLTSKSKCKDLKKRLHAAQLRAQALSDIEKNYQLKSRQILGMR
# [13] = target: Protein kinase C gamma type (Homo sapiens) (UniProt P05129); assay: Inhibition of human truncated PKC gamma expressed in baculovirus assessed as substrate phosphorylation using fluorescence-labelled peptides as substrate at 70 uM after 90 mins by microfluidic peptide phosphorylation assay
# Hepatocyte growth factor receptor (Homo sapiens), sequence (P08581 whole entry, the tested form may be a part, canonical isoform): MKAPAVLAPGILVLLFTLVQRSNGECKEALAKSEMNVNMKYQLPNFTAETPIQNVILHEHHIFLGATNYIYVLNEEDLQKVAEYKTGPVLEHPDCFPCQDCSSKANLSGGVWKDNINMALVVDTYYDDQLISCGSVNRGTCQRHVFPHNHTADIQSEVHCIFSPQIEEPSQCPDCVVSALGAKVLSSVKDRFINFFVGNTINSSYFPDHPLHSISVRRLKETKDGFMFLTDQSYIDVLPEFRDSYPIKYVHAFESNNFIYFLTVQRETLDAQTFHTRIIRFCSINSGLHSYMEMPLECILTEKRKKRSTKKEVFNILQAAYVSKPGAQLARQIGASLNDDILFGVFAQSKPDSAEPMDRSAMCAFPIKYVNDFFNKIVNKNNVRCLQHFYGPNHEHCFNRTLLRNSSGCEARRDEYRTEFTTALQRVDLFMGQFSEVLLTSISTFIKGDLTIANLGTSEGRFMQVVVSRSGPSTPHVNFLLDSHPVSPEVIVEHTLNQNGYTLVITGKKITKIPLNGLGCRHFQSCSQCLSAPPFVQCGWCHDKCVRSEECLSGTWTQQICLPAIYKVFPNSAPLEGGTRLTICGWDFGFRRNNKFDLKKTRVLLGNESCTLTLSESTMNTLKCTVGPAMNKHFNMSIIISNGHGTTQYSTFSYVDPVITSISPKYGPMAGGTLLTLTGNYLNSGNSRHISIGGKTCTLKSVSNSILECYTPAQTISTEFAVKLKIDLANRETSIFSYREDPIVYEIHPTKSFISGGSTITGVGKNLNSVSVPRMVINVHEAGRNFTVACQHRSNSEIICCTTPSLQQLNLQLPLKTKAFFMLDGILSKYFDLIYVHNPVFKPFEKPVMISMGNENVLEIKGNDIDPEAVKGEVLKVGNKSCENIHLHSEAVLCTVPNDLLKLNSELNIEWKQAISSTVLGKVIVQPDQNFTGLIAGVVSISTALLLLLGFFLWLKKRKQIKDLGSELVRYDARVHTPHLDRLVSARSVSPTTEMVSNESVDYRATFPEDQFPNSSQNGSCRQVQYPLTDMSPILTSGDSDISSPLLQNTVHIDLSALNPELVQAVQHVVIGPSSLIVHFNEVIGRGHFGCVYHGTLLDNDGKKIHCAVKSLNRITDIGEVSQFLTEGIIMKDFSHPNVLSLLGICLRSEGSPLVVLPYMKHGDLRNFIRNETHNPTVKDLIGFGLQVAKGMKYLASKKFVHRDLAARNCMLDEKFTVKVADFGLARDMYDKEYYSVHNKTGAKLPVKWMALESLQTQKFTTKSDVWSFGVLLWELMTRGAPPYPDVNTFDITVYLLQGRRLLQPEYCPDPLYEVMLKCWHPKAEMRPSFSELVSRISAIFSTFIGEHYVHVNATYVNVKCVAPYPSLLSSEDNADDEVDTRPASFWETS
# Fibroblast growth factor receptor 1 (Homo sapiens), sequence (P11362 22-822 limits assumed): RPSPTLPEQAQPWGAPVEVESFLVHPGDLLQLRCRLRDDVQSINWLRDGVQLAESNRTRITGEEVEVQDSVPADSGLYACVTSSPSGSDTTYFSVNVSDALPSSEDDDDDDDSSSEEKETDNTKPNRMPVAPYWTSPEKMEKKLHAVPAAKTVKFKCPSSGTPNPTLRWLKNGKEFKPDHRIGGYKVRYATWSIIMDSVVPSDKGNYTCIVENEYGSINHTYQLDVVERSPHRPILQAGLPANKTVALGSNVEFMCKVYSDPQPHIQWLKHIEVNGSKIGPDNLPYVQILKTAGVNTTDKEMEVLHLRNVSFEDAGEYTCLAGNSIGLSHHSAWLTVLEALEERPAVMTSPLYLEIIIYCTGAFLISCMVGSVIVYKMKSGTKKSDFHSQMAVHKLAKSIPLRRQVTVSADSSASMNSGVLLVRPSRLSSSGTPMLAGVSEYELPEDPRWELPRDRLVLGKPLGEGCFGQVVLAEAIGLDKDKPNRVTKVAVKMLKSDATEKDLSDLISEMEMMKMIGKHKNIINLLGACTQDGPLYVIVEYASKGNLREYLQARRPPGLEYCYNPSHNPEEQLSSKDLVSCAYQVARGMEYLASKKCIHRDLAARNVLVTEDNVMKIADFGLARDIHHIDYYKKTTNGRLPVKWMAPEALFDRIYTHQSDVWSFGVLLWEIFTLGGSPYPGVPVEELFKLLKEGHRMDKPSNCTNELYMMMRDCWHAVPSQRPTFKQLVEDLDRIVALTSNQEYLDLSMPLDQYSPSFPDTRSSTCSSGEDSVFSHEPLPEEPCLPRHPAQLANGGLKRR
# Mitogen-activated protein kinase 3 (Homo sapiens), sequence (P27361 whole entry, the tested form may be a part): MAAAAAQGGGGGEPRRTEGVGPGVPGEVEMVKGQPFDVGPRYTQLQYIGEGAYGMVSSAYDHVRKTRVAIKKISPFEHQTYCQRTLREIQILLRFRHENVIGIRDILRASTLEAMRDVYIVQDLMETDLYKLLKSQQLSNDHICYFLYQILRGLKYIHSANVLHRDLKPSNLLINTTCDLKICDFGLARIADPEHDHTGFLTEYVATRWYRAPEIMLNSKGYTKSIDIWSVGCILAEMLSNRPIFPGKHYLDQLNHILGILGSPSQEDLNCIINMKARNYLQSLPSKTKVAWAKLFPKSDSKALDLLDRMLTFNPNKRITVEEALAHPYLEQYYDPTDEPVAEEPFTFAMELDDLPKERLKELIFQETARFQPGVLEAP
# Serine/threonine-protein kinase pim-1 (Homo sapiens), sequence (P11309 whole entry, looked up, the tested form may be a part): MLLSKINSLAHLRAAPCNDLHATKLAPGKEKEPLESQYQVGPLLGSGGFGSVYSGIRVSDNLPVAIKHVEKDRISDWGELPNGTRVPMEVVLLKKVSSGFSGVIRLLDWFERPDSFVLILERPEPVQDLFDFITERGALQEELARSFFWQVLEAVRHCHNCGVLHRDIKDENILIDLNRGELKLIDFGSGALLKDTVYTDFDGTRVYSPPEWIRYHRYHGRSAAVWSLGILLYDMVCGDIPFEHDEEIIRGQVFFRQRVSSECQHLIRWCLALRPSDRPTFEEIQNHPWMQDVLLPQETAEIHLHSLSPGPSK
# Casein kinase I isoform delta (Homo sapiens), sequence (P48730 whole entry, looked up, the tested form may be a part, canonical isoform): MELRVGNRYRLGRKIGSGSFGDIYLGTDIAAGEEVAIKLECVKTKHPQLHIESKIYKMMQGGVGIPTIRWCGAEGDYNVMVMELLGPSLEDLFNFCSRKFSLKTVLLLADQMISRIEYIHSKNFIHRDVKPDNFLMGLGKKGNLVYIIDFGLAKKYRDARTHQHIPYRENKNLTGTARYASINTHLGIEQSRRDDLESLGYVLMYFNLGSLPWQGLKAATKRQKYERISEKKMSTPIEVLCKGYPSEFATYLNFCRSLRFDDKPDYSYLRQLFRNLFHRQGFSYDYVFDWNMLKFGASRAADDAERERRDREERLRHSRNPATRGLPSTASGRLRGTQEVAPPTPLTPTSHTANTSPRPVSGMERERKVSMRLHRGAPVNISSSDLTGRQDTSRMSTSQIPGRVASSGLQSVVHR
compound,measurement,setting,value
NCC1CCN(c2ncnc3[nH]ccc23)CC1,inhibition,[1],8.5%
same,inhibition,[2],25.5%
same,inhibition,[3],9%
NC1CCN(c2ncnc3[nH]ccc23)CC1,inhibition,[4],2%
same,inhibition,[5],0%
COC(=O)c1cnc(Nc2cnc(C#N)cn2)cc1NCC1CCNCC1,inhibition,[6],10.5%
C[C@H](CN(C)C)Oc1nc(Nc2cc3cccc(Cl)c3cn2)cnc1C#N,inhibition,[7],2.5%
NCCc1ccc(-c2ncnc3[nH]cnc23)cc1,inhibition,[8],85%
c1cnc2[nH]ccc2c1,inhibition,[9],55%
CNCc1ccc(-c2ncnc3[nH]cnc23)cc1,inhibition,[10],72%
same,inhibition,[11],15%
same,inhibition,[12],15.5%
same,inhibition,[13],64%
